For 1 compound, In vivo activity and IC50 results are on record in US10226451B2, “Substituted bicyclic compounds as bromodomain inhibitors” (ZENITH EPIGENETICS LTD, priority 2013, dated 2019).

The subject of one experiment is MM1.s cells xenograft. In words: In vivo efficacy, multiple myeloma xenograft model using MM1.s cells. More on the design: species or system mouse. To be noted: SCID-Beige mice, oral dosing, tumor growth inhibition. As to the method:
MM1.s cells (ATCC) were grown under standard cell culture conditions and SCID-Beige strain of female mice age 6-7 weeks were injected with 10×10^6 cells/animal in 100 μL PBS+100 μL Matrigel in the lower left abdominal flank. By approximately day 21 after MM1.s cells injection, mice were randomized based on tumor volume (L×W×H)/2) of average ˜120 mm^3. Mice were dosed orally with compound at 25 to 90 mg/kg b.i.d and or q.d in EA006 formulation at 10 mL/kg body weight dose volume. Tumor measurements were taken with electronic micro calipers and body weights measured on alternate days beginning from dosing period. The average tumor volumes, percent Tumor Growth Inhibition (TGI) and % change in body weights were compared relative to Vehicle control animals. The means, statistical analysis and the comparison between groups were calculated using Student's t-test in Excel.

Experiment [1] addresses T1, Brd4 bromodomain 1 (BRD4(1)) (Homo sapiens, UniProt O60885).
T1 construct: made in house; host or cells: E. coli BL21(DE3)
Nature of the experiment: Inhibition of tetra-acetylated histone H4 binding to Brd4 bromodomain 1 (HTRF/FRET). To be noted: tetra-acetylated histone H4 peptide, His-tagged bromodomain 200 nM, 2 h. The method in brief:
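N-terminally His-tagged bromodomain (200 nM), expressed in E. coli and purified by Ni affinity and size exclusion, was incubated with biotinylated tetra-acetylated H4 peptide (25-50 nM), Eu-cryptate streptavidin and XL665 anti-His in HEPES pH 7.4 buffer with 0.2% DMSO. Reactions ran 2 h at room temperature. IC50 came from the 665/620 nm fluorescence decrease.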
(In TR-FRET formats the signal depends on donor and acceptor labels being close together.)

Experiment [2] concerns Bcl2 and c-myc gene expression in MV4-11 and MM1.s tumors. Nature of the experiment: Evaluation of target engagement in xenograft tumors (PD biomarkers). Type of experiment: in vivo, mouse. To be noted: oral dose, tumors harvested 3, 6, 12, 24 hrs post dose. As to the method:
MV4-11 and MM1.s cells (ATCC) were grown under standard cell culture conditions and (NCr) nu/nu fisol strain of female mice age 6-7 weeks were injected with 5×10^6 cells/animal in 100 μL PBS+100 μL Matrigel in the lower left abdominal flank. By approximately day 28 after MV4-11 and MM1.s cells injection, mice were randomized based on tumor volume (L×W×H)/2) of average ˜500 mm^3. Mice were dosed orally with compound in EA006 formulation at 10 mL/kg body weight dose volume and tumors harvested 3, 6, 12, 24 hrs post dose for Bcl2 and c-myc gene expression analysis as PD biomarkers.

The test system of another experiment is hIL-6 mRNA in U937 cells. In words: Inhibition of hIL-6 mRNA transcription in LPS-stimulated U937 cells. Type of experiment: cell-based. The settings on record: Homo sapiens, U-937, PMA-differentiated U937 cells, LPS 1 ug/mL, 3 h, read-out: IL-6 activity. In outline: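 U937 cells were differentiated to macrophages with 60 ng/mL PMA for 3 days, pretreated 1 h with compound in 0.1% DMSO, then stimulated with 1 ug/mL E. coli LPS for 3 h at 37° C. hIL-6 mRNA was quantified by one-step TaqMan RT-qPCR, normalized to cyclophilin, as fold expression versus control.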

Experiment [3] deals with c-myc in Human AML MV4-11 cells. Nature of the experiment: Inhibition of c-MYC expression (mRNA, real-time PCR) in MV4-11 cells. The experiment is classed as cell-based. The settings on record: 3 h, mRNA by real-time PCR. The method in brief: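 Cells at 2.5×10^4 per well in IMDM/10% FBS were treated with rising compound concentrations or 0.1% DMSO for 3 h at 37° C., in triplicate. cMYC mRNA was measured by one-step TaqMan qRT-PCR, normalised to cyclophilin, and expressed as fold expression relative to control.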
(In general: Quantitative PCR measures a nucleic acid by following its amplification.)

For `Cc1noc(C)c1-c1cc(-c2c(C)nn(C)c2C)c2c(c1)[nH]c(=O)n2C` [Example Compound 9, 5-(3,5-dimethylisoxazol-4-yl)-1-methyl-7-(1,3,5-trimethyl-1H-pyrazol-4-yl)-1H-benzo[d]imidazol-2(3H)-one], the In vivo activity entry (in the experiment on MM1.s cells xenograft; in experiment [2]) was “Active” each time. Also, the IC50 (in experiment [1]; in the experiment with hIL-6 mRNA in U937 cells; in experiment [3]) was at most 300 nM in each case.
